Assay results: patent US12048691B2 (SPERO THERAPEUTICS, INC., priority 2020, dated 2024)
Values after ≈ are worked out from the molar mass of the structure shown. Where a name gives a salt, the structure may show the parent alone. Read-outs that look alike come from different tables or passages of the source. Marks after values point to notes of the source that are not given here.

Legend:
[1] = system: Enterobacterales overproducing AmpC; assay: Broth microdilution susceptibility of isolates overexpressing AmpC; assay type: cell-based
Method: (§1) Frozen-form broth microdilution panels were manufactured by JMI Laboratories and contained cation-adjusted Mueller-Hinton broth. Quality assurance was performed by sterility checks, colony counts, and testing CLSI recommended quality control reference strains.

E. coli [2] = assay: Broth microdilution against US UTI pathogens 2019-2020; assay type: cell-based; conditions: E. coli (2,339); for % susceptible; CLSI: cefuroxime: oral breakpoint
Method: (§2) This study assessed the in vitro activity of tebipenem and comparator agents against Enterobacterales (ENT) responsible for UTIs in the US during 2019-2020. A total of 3,576 ENT recovered from urine samples during the 2019-2020 STEWARD Surveillance Program were included in the study. Isolates were collected from medical centers in all 9 US Census Regions and were centrally tested for susceptibility by reference broth microdilution method. MIC interpretation was performed based on CLSI criteria.

Enterobacterales (ENT) = assay: as above; assay type: cell-based; conditions: All (3,567); for % susceptible; CLSI: cefuroxime: oral breakpoint
Method: as §2

K. pneumoniae = assay: as above; assay type: cell-based; conditions: K. pneumoniae (511); for % susceptible; CLSI: cefuroxime: oral breakpoint
Method: as §2

P. mirabilis = assay: as above; assay type: cell-based; conditions: for % susceptible; CLSI: cefuroxime: oral breakpoint
Method: as §2

E. coli [3] = assay: Broth microdilution MIC against characterized subsets of UTI E. coli (2018-2020); assay type: cell-based
Excerpt: Isolates were collected from medical centers in all 9 US Census Regions and tested by broth microdilution. MIC interpretation was based on CLSI. Isolates that met MIC criteria were subjected to genome sequencing, followed by screening of extended-spectrum b-lactamase (ESBL) genes and epidemiology typing (MLST).

[4] = system: Vancomycin-susceptible Enterococcus faecalis; assay: Broth microdilution against Gram-positive clinical isolates; assay type: cell-based; conditions: E. faecalis
Method: The purpose of this study was to investigate the in vitro activity of tebipenem and comparator agents, including ertapenem and meropenem, against a recent collection of Gram-positive isolates associated with clinical infections. The susceptibility of 580 Gram-positive organisms were tested, including: Methicillin-susceptible Staphylococcus aureus (MSSA, 489 isolates), Methicillin-susceptible Staphylococcus epidermidis (MSSE, 31), other methicillin-susceptible coagulase-negative staphylococci (MSCONS, 29), and Vancomycin-susceptible Enterococcus faecalis (31). Bacterial species were identified by JMI Laboratories using standard microbiology methods and matrix-assisted laser desorption ionization-time of flight mass spectrometry (Bruker Daltonics, Bremen, Germany). The isolates were collected in 2018 and 2019 as part of the SENTRY surveillance program and selected to be representative of these species with 45.0% from the United States, 44.3% from Europe, 5.3% from the Asia-Pacific region, and 5.3% from Latin America. Isolates are primarily from pneumonia in hospitalized patients (498 isolates; 85.9%), urinary tract infections (42 isolates; 7.2%), and bloodstream infections (38 isolates; 6.6%). Isolates were tested in a central laboratory (JMI Laboratories) for antimicrobial susceptibility using the CLSI M07 (2018) reference broth microdilution method. JMI Laboratories produced frozen-form 96-well panels and used cation-adjusted Mueller-Hinton broth (CA-MHB) as the testing medium. All categorical interpretations used CLSI M100 (2021) and EUCAST v10.0 (2021) breakpoint criteria, where published. Quality control organisms include Escherichia coli ATCC 25922, Escherichia coli ATCC 35218, Enterococcus faecalis ATCC 29212, Pseudomonas aeruginosa ATCC 27853, and Staphylococcus aureus ATCC 29213 were tested concurrently with clinical isolates.

[5] = system: bacteremia secondary to cUTI/AP; assay: Efficacy in patients with cUTI or acute pyelonephritis and associated bacteremia; assay type: in vivo, human
Excerpt: The objective of this analysis was to evaluate the efficacy of TBP-PI-HBr in the subset of patients with associated bacteremia from a study of patients with either cUTI or acute pyelonephritis.

E. coli [6] = assay: Susceptibility of E. coli from urinary tract infections, 18 EU countries 2020 (STEWARD); assay type: cell-based; conditions: for MIC90: Escherichia coli, all E. coli (764) from UTIs; for Susceptibility rate: EUCAST criteria
Method: The study assessed the prevalence of resistance and evaluated the activity of oral tebipenem (TBP) and comparators against EC from urinary tract infections.
Results were interpreted using EUCAST criteria. […] ESBL phenotypes were determined by CLSI criteria and sequenced to identify CTX-M-15 genotype and clonal complex ST131.

[7] = Particle size distribution of tebipenem pivoxil HBr batches by sieve method; assay type: physicochemical
[8] = system: P. aeruginosa isolates that overproduced AmpC; assay: Broth microdilution susceptibility of isolates overexpressing AmpC; assay type: cell-based; conditions: P. aeruginosa (32)
Method: as §1

[9] = Enterobacterales (36), second cefuroxime line, footnote c (not given)

CO/N=C(\C(=O)N[C@@H]1C(=O)N2C(C(=O)O)=C(COC(N)=O)CS[C@H]12)c1ccco1 [Cefuroxime]
MIC50 [1]: > 64 µg/mL | MIC90 [1]: > 64 µg/mL | CLSI %1 ([1]; Enterobacterales (36)): 5.6% | CLSI % R ([1]; Enterobacterales (36)): 94.4% | CLSI % S ([1]; Enterobacterales (36)): 0.0^b % | CLSI %1 [1, 9]: 5.6% | CLSI % R [1, 9]: 94.4% | CLSI % S [1, 9]: 0.0^c % | % susceptible; CLSI (E. coli [2]): (63.1) % | % susceptible; CLSI (Enterobacterales (ENT)): (63.5) % | % susceptible; CLSI (K. pneumoniae): (75.3) % | % susceptible; CLSI (P. mirabilis; P. mirabilis (235)): (94.4) % | % susceptible; CLSI (P. mirabilis; P. mirabilis (235), listed as cefuroxime): 94.4%

amoxicillin-clavulanate (2:1) [A/C]
% susceptible by CLSI M100 criteria (E. coli [3]; CTX-M a): 57.6% | MIC50 (E. coli [3]; CTX-M a): 8 µg/mL | MIC90 (E. coli [3]; CTX-M a): 16 µg/mL | % susceptible by CLSI M100 criteria (E. coli [3]; ESBL (360)): 47.2% | MIC50 (E. coli [3]; ESBL (360)): 16 µg/mL | MIC90 (E. coli [3]; ESBL (360)): 32 µg/mL | % susceptible by CLSI M100 criteria (E. coli [3]; Non-ESBL (2035)): 86.6% | MIC50 (E. coli [3]; Non-ESBL (2035)): 4 µg/mL | MIC90 (E. coli [3]; Non-ESBL (2035)): 16 µg/mL | CLSI %1 ([1]; Enterobacterales (36)): 11.1% | CLSI % R ([1]; Enterobacterales (36)): 86.1% | CLSI % S ([1]; Enterobacterales (36)): 2.8% | MIC50 ([1]; Enterobacterales (36)): >32 μ/ml | MIC90 ([1]; Enterobacterales (36)): >32 μ/ml | MIC50 (E. coli [2]): 4000 µg/mL | MIC90 (E. coli [2]): 16000 µg/mL | % susceptible; CLSI (E. coli [2]): (80.8) % | MIC50 (Enterobacterales (ENT)): 4000 µg/mL | MIC90 (Enterobacterales (ENT)): 32000 µg/mL | % susceptible; CLSI (Enterobacterales (ENT)): (76.1) % | MIC50 (K. pneumoniae): 2000 µg/mL | MIC90 (K. pneumoniae): 16000 µg/mL | % susceptible; CLSI (K. pneumoniae): (86.7) % | MIC50 (P. mirabilis; P. mirabilis (235)): 1/1 mg/mL | MIC90 (P. mirabilis; P. mirabilis (235)): 1/1 mg/mL | % susceptible; CLSI (P. mirabilis; P. mirabilis (235)): (96.6) % | % susceptible; CLSI (P. mirabilis; P. mirabilis (235), listed as amoxicillin/clavulanate): 96.6%

CC1(C)S[C@@H]2[C@H](NC(=O)[C@H](N)c3ccccc3)C(=O)N2[C@H]1C(=O)O [ampicillin]
Susceptibility rate [4]: 100.0%

C[C@@H](O)[C@H]1C(=O)N2C(C(=O)OCOC(=O)C(C)(C)C)=C(SC3CN(C4=NCCS4)C3)[C@H](C)[C@H]12 [Tebipenem pivoxil HBr, tebipenem pivoxil hydrobromide]
Clinical cure rate ([5]; EOT): 100% | Clinical cure rate ([5]; TOC): 97.9% | Overall response rate ([5]; end-of-treatment (EOT)): 93.6% | Clinical cure rate ([5]; late-follow-up (LFU) visit): approximately 89% | Overall response rate ([5]; test-of-cure (TOC)): 72.3%

C[C@H]1COc2c(N3CCN(C)CC3)c(F)cc3c(=O)c(C(=O)O)cn1c23 [Levofloxacin, levofloxacin]
prevalence of resistant phenotype (E. coli [6]; all E. coli): 20.6% | Susceptibility rate [4]: 80.6% | % susceptible; CLSI (E. coli [2]): (75.7) % | % susceptible; CLSI (Enterobacterales (ENT)): (79.4) % | % susceptible; CLSI (K. pneumoniae): (87.1) % | % susceptible; CLSI (P. mirabilis; P. mirabilis (235)): (71.8) %

Br.C[C@@H](O)[C@H]1C(=O)N2C(C(=O)OCOC(=O)C(C)(C)C)=C(SC3CN(C4=NCCS4)C3)[C@H](C)[C@H]12 [Lot 1, Comil-ed]
particle size distribution, 45 um< [7]: 35% | particle size distribution, 75 um< [7]: 27% | particle size distribution, 106 um< [7]: 16% | particle size distribution, 150 um< [7]: 1% | particle size distribution, 300 um< [7]: 0% | particle size distribution, <45 um [7]: 21%

Piperacillin-tazobactam
CLSI %1 ([1]; Enterobacterales (36)): 19.4% | CLSI % R ([1]; Enterobacterales (36)): 33.3% | CLSI % S ([1]; Enterobacterales (36)): 47.2% | MIC50 ([1]; Enterobacterales (36)): 32 μ/ml | MIC90 ([1]; Enterobacterales (36)): >128 μ/ml | CLSI %1 [8]: 40.6% | CLSI % R [8]: 53.1% | CLSI % S [8]: 6.2% | MIC50 [8]: 128 μ/ml | MIC90 [8]: >128 μ/ml

Br.C[C@@H](O)[C@H]1C(=O)N2C(C(=O)OCOC(=O)C(C)(C)C)=C(SC3CN(C4=NCCS4)C3)[C@H](C)[C@H]12 [Lot 2]
particle size distribution, 45 um< [7]: 46% | particle size distribution, 75 um< [7]: 6% | particle size distribution, 106 um< [7]: 6% | particle size distribution, 150 um< [7]: 2% | particle size distribution, 300 um< [7]: 0% | particle size distribution, <45 um [7]: 40%

C[C@@H](O)[C@H]1C(=O)N2C(C(=O)O)=C(S[C@@H]3CN[C@H](C(=O)N(C)C)C3)[C@H](C)[C@H]12 [Meropenem, meropenem]
MIC90 (E. coli [6]): 0.03 µg/mL (≈ 0.0782 µM) | Susceptibility rate (E. coli [6]; all E. coli): 100% | MIC50 [1]: 0.03 µg/mL (≈ 0.0782 µM) | MIC90 [1]: 0.12 µg/mL (≈ 0.313 µM) | CLSI %1 ([1]; Enterobacterales (36)): 0.0% | CLSI % R ([1]; Enterobacterales (36)): 0.0% | CLSI % S ([1]; Enterobacterales (36)): 100.0% | MIC50 ([1]; Enterobacterales (36)): 0.03 μ/ml | MIC90 ([1]; Enterobacterales (36)): 0.12 μ/ml | MIC range ([1]; Enterobacterales (36)): ≤0.015 to 1 μ/ml | CLSI %1 [8]: 0.0% | CLSI % R [8]: 0.0% | CLSI % S [8]: 100.0% | MIC range [8]: 0.12 to 2 μ/ml | MIC90 ([4]; Enterococcus faecalis, 31 isolates): > 1 µg/mL

Tebipenem pivoxil
MIC50 (P. mirabilis): 0.12 mg/L | MIC90 (P. mirabilis): 0.12 mg/L | concentration inhibiting all PM (P. mirabilis): 0.25 mg/L

CC1(C)S[C@@H]2[C@H](/N=C/N3CCCCCC3)C(=O)N2[C@H]1C(=O)O [mecillinam]
MIC90 (E. coli [6]): > 8 µg/mL | Susceptibility rate (E. coli [6]; all E. coli): 88.0%
